According to patent US10040781B2, “Tank-binding kinase inhibitor compounds” (Gilead Sciences, Inc., priority 2014, dated 2018):
Like-named read-outs stand apart in the source and are kept apart here.

Assays:
IKKε = IKKε (Homo sapiens (Human), UniProt Q14164); assay: IKKε TR-FRET enzymatic assay; assay type: biochemical
TBK1 = TBK1 (Homo sapiens (Human), UniProt Q9UHD2); assay: TBK1 TR-FRET enzymatic assay;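 note: phosphorylation of a biotinylated Ser/Thr peptide by purified full-length recombinant TBK1, read by TR-FRET after 240 min at 25 °C, IC50 is the geometric mean of at least four runs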
Chain of TBK1 (Q9UHD2 whole entry): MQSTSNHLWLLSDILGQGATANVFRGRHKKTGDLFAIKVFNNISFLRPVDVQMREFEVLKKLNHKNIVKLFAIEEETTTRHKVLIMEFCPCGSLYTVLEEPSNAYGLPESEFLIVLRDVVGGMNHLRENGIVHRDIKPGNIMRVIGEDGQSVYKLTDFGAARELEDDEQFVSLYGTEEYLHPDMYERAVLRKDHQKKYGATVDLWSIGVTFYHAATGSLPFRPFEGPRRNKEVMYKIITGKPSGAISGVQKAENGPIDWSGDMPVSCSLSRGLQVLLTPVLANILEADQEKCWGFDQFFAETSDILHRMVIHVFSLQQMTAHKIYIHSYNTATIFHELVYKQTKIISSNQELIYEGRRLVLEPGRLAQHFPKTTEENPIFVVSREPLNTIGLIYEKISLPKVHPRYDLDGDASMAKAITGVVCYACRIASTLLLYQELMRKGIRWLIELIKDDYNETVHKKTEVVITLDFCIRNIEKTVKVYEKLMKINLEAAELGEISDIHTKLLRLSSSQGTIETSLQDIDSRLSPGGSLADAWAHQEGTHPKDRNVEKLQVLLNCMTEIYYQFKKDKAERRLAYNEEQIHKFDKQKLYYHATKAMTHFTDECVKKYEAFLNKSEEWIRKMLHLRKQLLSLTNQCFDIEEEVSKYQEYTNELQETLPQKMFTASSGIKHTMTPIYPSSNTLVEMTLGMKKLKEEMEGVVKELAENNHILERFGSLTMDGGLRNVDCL

hJAK2 = hJAK2 (Homo sapiens (Human), UniProt O60674); assay: hJAK2 LANCE TR-FRET enzymatic assay; assay type: biochemical; conditions: read-out: JAK2 IC50
Chain of hJAK2 (O60674 whole entry): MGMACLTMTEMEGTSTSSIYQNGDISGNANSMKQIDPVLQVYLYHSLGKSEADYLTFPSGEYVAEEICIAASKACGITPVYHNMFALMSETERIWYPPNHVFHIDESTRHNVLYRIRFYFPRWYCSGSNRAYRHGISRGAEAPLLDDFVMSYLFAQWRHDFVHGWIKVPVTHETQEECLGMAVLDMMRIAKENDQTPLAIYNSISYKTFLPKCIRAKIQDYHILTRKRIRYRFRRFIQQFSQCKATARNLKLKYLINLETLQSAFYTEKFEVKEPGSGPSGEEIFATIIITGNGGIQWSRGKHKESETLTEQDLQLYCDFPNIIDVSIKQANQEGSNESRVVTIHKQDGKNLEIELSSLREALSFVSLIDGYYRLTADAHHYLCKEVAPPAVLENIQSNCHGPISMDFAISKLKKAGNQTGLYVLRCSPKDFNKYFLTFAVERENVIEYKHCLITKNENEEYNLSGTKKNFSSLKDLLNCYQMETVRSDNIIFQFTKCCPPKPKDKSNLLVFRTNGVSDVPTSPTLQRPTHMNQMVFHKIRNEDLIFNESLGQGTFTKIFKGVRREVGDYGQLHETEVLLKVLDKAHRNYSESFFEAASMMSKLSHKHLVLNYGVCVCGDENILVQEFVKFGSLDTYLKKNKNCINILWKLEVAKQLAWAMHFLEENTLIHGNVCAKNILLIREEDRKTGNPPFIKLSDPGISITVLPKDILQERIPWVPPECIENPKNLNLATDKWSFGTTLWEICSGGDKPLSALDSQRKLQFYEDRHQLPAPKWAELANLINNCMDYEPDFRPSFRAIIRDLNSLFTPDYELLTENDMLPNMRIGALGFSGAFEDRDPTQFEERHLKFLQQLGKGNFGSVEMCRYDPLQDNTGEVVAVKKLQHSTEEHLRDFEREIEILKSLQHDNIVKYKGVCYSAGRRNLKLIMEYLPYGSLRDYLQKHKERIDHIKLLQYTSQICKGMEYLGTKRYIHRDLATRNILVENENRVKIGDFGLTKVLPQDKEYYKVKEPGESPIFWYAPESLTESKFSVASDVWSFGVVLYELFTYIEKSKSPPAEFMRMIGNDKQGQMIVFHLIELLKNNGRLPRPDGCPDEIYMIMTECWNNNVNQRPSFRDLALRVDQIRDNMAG

Chain of IKKε (Q14164 whole entry): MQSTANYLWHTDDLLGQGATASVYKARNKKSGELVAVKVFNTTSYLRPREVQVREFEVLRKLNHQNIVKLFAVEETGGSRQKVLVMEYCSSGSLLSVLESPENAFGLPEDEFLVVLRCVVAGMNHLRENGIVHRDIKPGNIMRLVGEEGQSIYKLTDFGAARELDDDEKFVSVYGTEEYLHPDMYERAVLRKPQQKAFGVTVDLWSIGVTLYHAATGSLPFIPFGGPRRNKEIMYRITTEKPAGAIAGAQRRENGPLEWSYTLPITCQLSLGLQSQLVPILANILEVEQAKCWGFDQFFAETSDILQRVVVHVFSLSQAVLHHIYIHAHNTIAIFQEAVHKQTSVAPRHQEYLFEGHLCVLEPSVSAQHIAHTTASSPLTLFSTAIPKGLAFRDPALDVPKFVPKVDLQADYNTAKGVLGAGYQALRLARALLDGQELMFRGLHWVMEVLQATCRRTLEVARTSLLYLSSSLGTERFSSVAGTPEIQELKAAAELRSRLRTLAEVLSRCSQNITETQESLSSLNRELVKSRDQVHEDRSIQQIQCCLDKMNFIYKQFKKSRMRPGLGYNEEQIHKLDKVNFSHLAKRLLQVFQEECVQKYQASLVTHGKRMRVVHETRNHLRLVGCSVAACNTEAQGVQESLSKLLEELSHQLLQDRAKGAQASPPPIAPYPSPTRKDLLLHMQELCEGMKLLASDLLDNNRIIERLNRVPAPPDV

Row | SMILES | IC50 (IKKε; read-out: IKKe IC50) [nM] | IC50 (IKKε; IKKe IC50) [nM] | IC50 (TBK1; TBK1 IC50) [nM] | IC50 (hJAK2) [nM] | IC50 (TBK1) [nM]
1 | N#Cc1cc(-c2ncnc(Nc3ccc(N4CCN(C5COC5)CC4)cc3)n2)ccc1O[C@@H]1CCN(C(=O)CO)C[C@@H]1F (racemic) [Example 218, 2-((cis-3-fluoro-1-(2-hydroxyacetyl)piperidin-4-yl)oxy)-5-(4-((4-(4-(oxetan-3-yl)piperazin-1-yl)phenyl)amino)-1,3,5-triazin-2-yl)benzonitrile] | 3 |  |  |  | 
2 | N#Cc1cc(-c2ncnc(Nc3ccc(N4CCN(C5COC5)CC4)cc3)n2)ccc1OC1CC[S+]([O-])CC1 (single isomer, unassigned) [Example 25, 5-(4-((4-(4-(oxetan-3-yl)piperazin-1-yl)phenyl)amino)-1,3,5-triazin-2-yl)-2-((1-oxidotetrahydro-2H-thiopyran-4-yl)oxy)benzonitrile] |  | 73 | 21 |  | 
3 | N#Cc1cc(-c2ncnc(Nc3ccc(N4CCO[C@@H](CO)C4)cc3)n2)ccc1OC1CCOCC1 [Example 107, (R)-5-(4-((4-(2-(hydroxymethyl)morpholino)phenyl)amino)-1,3,5-triazin-2-yl)-2-((tetrahydro-2H-pyran-4-yl)oxy)benzonitrile] | 3 |  |  |  | 
4 | N#Cc1cc(-c2ncnc(Nc3ccc(N4CCN(C5COC5)CC4)cc3)n2)ccc1O[C@@H]1CCN(C(=O)CO)C[C@@H]1F [Example 224, 2-(((3S,4R)-3-fluoro-1-(2-hydroxyacetyl)piperidin-4-yl)oxy)-5-(4-((4-(4-(oxetan-3-yl)piperazin-1-yl)phenyl)amino)-1,3,5-triazin-2-yl)benzonitrile] | 23 |  |  |  | 
5 | N#Cc1cc(-c2ncnc(Nc3ccc(N4CCN(C5COC5)CC4)cc3)n2)ccc1O[C@@H]1CCN(C(=O)CO)C[C@H]1F [Example 235, 2-(((3R,4R)-3-fluoro-1-(2-hydroxyacetyl)piperidin-4-yl)oxy)-5-(4-((4-(4-(oxetan-3-yl)piperazin-1-yl)phenyl)amino)-1,3,5-triazin-2-yl)benzonitrile] | 5 |  |  |  | 
6 | N#Cc1cc(-c2ncnc(Nc3ccc(C4CCN(C5COC5)CC4)cc3)n2)ccc1OC1CCS(=O)(=O)CC1 [Example 270, 2-((1,1-dioxidotetrahydro-2H-thiopyran-4-yl)oxy)-5-(4-((4-(1-(oxetan-3-yl)piperidin-4-yl)phenyl)amino)-1,3,5-triazin-2-yl)benzonitrile] | 43 |  |  |  | 
7 | Cc1cc(Nc2ncnc(-c3ccc(O[C@H]4CCN(C=O)CC4(F)F)c(C#N)c3)n2)ccc1C1CCNCC1 [Example 303, (S)-2-((3,3-difluoro-1-formylpiperidin-4-yl)oxy)-5-(4-((3-methyl-4-(piperidin-4-yl)phenyl)amino)-1,3,5-triazin-2-yl)benzonitrile] |  |  |  | 290 | 1
8 | Cc1cc(Nc2ncnc(-c3ccc(O[C@H]4CCN(C=O)CC4(F)F)c(C#N)c3)n2)ccc1C1CCN(C)CC1 [Example 304, (S)-2-((3,3-difluoro-1-formylpiperidin-4-yl)oxy)-5-(4-((3-methyl-4-(1-methylpiperidin-4-yl)phenyl)amino)-1,3,5-triazin-2-yl)benzonitrile] |  |  |  | ≥ 1000 | 2
9 | N#Cc1cc(-c2ncnc(Nc3ccc(C4CCN(C5COC5)CC4)cc3)n2)ccc1O[C@H]1CCN(C(=O)CO)C[C@H]1F [Example 305, 2-(((3R,4S)-3-fluoro-1-(2-hydroxyacetyl)piperidin-4-yl)oxy)-5-(4-((4-(1-(oxetan-3-yl)piperidin-4-yl)phenyl)amino)-1,3,5-triazin-2-yl)benzonitrile] |  |  |  | 292 | 2
10 | N#Cc1cc(-c2ncnc(Nc3ccc(C4CCN(C5COC5)CC4)cc3)n2)ccc1O[C@H]1CCN(C(=O)c2ccn[nH]2)C[C@H]1F [Example 318, 2-(((3R,4S)-3-fluoro-1-(1H-pyrazole-5-carbonyl)piperidin-4-yl)oxy)-5-(4-((4-(1-(oxetan-3-yl)piperidin-4-yl)phenyl)amino)-1,3,5-triazin-2-yl)benzonitrile] |  |  |  | ≥ 1000 | 2
11 | COc1cc(Nc2ncnc(-c3ccc(O[C@H]4CCN(C(=O)CO)C[C@H]4F)c(C#N)c3)n2)ccc1N1CCC(N2CCOCC2)CC1 [Example 325, 2-(((3R,4S)-3-fluoro-1-(2-hydroxyacetyl)piperidin-4-yl)oxy)-5-(4-((3-methoxy-4-(4-morpholinopiperidin-1-yl)phenyl)amino)-1,3,5-triazin-2-yl)benzonitrile] |  |  |  | 28 | 2
12 | C[C@H](O)C(=O)N1CC[C@H](Oc2ccc(-c3ncnc(Nc4ccc(N5C6COCC5C6)cc4)n3)cc2C#N)[C@H](F)C1 [Example 366, 5-(4-((4-(3-oxa-6-azabicyclo[3.1.1]heptan-6-yl)phenyl)amino)-1,3,5-triazin-2-yl)-2-(((3R,4S)-3-fluoro-1-((S)-2-hydroxypropanoyl)piperidin-4-yl)oxy)benzonitrile] |  |  | 3 | 531 | 
13 | N#CCC(=O)N1CC[C@H](Oc2ccc(-c3ncnc(Nc4ccc(N5CCN(C6COC6)CC5)c(F)c4)n3)cc2C#N)[C@H](F)C1 [Example 404, 2-(((3R,4S)-1-(2-cyanoacetyl)-3-fluoropiperidin-4-yl)oxy)-5-(4-((3-fluoro-4-(4-(oxetan-3-yl)piperazin-1-yl)phenyl)amino)-1,3,5-triazin-2-yl)benzonitrile] |  |  |  | 457 | 3
14 | Cc1nnc(C(=O)N2CC[C@H](Oc3ccc(-c4ncnc(Nc5ccc(C6CCN(C)CC6)c(C)c5)n4)cc3C#N)[C@H](F)C2)[nH]1 [Example 490, 2-(((3R,4S)-3-fluoro-1-(5-methyl-4H-1,2,4-triazole-3-carbonyl)piperidin-4-yl)oxy)-5-(4-((3-methyl-4-(1-methylpiperidin-4-yl)phenyl)amino)-1,3,5-triazin-2-yl)benzonitrile] |  |  |  | 78 | 3
15 | C[C@H](O)C(=O)N1CC[C@H](Oc2ccc(-c3ncnc(Nc4ccc(N5CCNCC5)cc4)n3)cc2C#N)[C@H](F)C1 [Example 497, 2-(((3R,4S)-3-fluoro-1-((S)-2-hydroxypropanoyl)piperidin-4-yl)oxy)-5-(4-((4-(piperazin-1-yl)phenyl)amino)-1,3,5-triazin-2-yl)benzonitrile] |  |  |  | 358 | 1
16 | C[C@H](O)C(=O)N1CC[C@H](Oc2ccc(-c3ncnc(Nc4ccc(N5CCN(C)CC5)cc4)n3)cc2C#N)[C@H](F)C1 [Example 498, 2-(((3R,4S)-3-fluoro-1-((S)-2-hydroxypropanoyl)piperidin-4-yl)oxy)-5-(4-((4-(4-methylpiperazin-1-yl)phenyl)amino)-1,3,5-triazin-2-yl)benzonitrile] |  |  |  | 389 | 2
17 | C[C@H]1CN(C)CCN1c1ccc(Nc2ncnc(-c3ccc(O[C@H]4CCN(C(=O)CO)C[C@H]4F)c(C#N)c3)n2)cc1 [Example 500, 5-(4-((4-((S)-2,4-dimethylpiperazin-1-yl)phenyl)amino)-1,3,5-triazin-2-yl)-2-(((3R,4S)-3-fluoro-1-(2-hydroxyacetyl)piperidin-4-yl)oxy)benzonitrile] |  |  |  | 182 | 2
18 | C[C@H](O)C(=O)N1CC[C@H](Oc2ccc(-c3ncnc(Nc4ccc(N5CCN(C)C[C@@H]5C)cc4)n3)cc2C#N)[C@H](F)C1 [Example 501, 5-(4-((4-((S)-2,4-dimethylpiperazin-1-yl)phenyl)amino)-1,3,5-triazin-2-yl)-2-(((3R,4S)-3-fluoro-1-((S)-2-hydroxypropanoyl)piperidin-4-yl)oxy)benzonitrile] |  |  |  | 457 | 2
19 | COc1cc(Nc2ncnc(-c3ccc(O[C@H]4CCN(C(=O)CO)C[C@H]4F)c(C#N)c3)n2)ccc1N1CCN(C)C[C@@H]1C [Example 508, 5-(4-((4-((S)-2,4-dimethylpiperazin-1-yl)-3-methoxyphenyl)amino)-1,3,5-triazin-2-yl)-2-(((3R,4S)-3-fluoro-1-(2-hydroxyacetyl)piperidin-4-yl)oxy)benzonitrile] |  |  |  | 49 | 2
20 | C[C@H]1CN(C)CCN1c1ccc(Nc2ncnc(-c3ccc(O[C@H]4CCN(C(=O)[C@@H](O)CO)C[C@H]4F)c(C#N)c3)n2)cc1 [Example 515, 2-(((3R,4S)-1-((S)-2,3-dihydroxypropanoyl)-3-fluoropiperidin-4-yl)oxy)-5-(4-((4-((S)-2,4-dimethylpiperazin-1-yl)phenyl)amino)-1,3,5-triazin-2-yl)benzonitrile] |  |  |  | 355 | 2
21 | C[C@H]1OC(=O)N[C@@H]1C(=O)N1CC[C@H](Oc2ccc(-c3ncnc(Nc4ccc(N5CCN(C6COC6)CC5)cc4)n3)cc2C#N)[C@H](F)C1 [Example 523, 2-(((3R,4S)-3-fluoro-1-((4S,5R)-5-methyl-2-oxooxazolidine-4-carbonyl)piperidin-4-yl)oxy)-5-(4-((4-(4-(oxetan-3-yl)piperazin-1-yl)phenyl)amino)-1,3,5-triazin-2-yl)benzonitrile] |  |  |  | 811 | 10
22 | COCCNc1ccc(Nc2ncnc(-c3ccc(O[C@H]4CCN(C(=O)[C@H](C)O)C[C@H]4F)c(C#N)c3)n2)cn1 [Example 543, 2-(((3R,4S)-3-fluoro-1-((S)-2-hydroxypropanoyl)piperidin-4-yl)oxy)-5-(4-((6-((2-methoxyethyl)amino)pyridin-3-yl)amino)-1,3,5-triazin-2-yl)benzonitrile] |  |  |  | ≥ 1000 | 12
23 | N#Cc1cc(-c2ncnc(Nc3ccc(N4CCN(C5COC5)CC4)cc3)n2)ccc1OCCCN1CCCC1=O [Example 600, 5-(4-((4-(4-(oxetan-3-yl)piperazin-1-yl)phenyl)amino)-1,3,5-triazin-2-yl)-2-(3-(2-oxopyrrolidin-1-yl)propoxy)benzonitrile] |  |  |  | ≥ 1000 | 517
24 | CN1CCN(C(=O)N(C)CCOc2ccc(-c3ncnc(Nc4ccc(N5CCN(C6COC6)CC5)cc4)n3)cc2C#N)CC1 [Example 603, N-(2-(2-cyano-4-(4-((4-(4-(oxetan-3-yl)piperazin-1-yl)phenyl)amino)-1,3,5-triazin-2-yl)phenoxy)ethyl)-N,4-dimethylpiperazine-1-carboxamide] |  |  |  | ≥ 1000 | 466
